From patent US11155557B2, “Pyrazolopyrimidine compounds and methods of use thereof” (Genentech, Inc., priority 2016, dated 2021) come the findings set out here.

Assay [1] concerns the target isolated recombinant JAK2 kinase domain (Homo sapiens (Human), UniProt O60674). Put plainly: JAK2 enzyme assay (Caliper LabChip, Ki). Particulars: read-out: JAK2 Ki.
The target of assay [2] is isolated recombinant JAK1 kinase domain (Homo sapiens (Human), UniProt P23458). Put plainly: JAK1 enzyme assay (Caliper LabChip, Ki). The assay is classed as biochemical. The protocol:
The activity of the isolated recombinant JAK1 and JAK2 kinase domain was measured by monitoring phosphorylation of a peptide derived from JAK3 ([…] fluorescently labeled on the N-terminus with 5-carboxyfluorescein) using the Caliper LabChip R technology (Caliper Life Sciences, Hopkinton, Mass.).

Assay [3] relates to JAK1-dependent STAT6 phosphorylation in BEAS-2B human bronchial epithelial cells. Put plainly: JAK1 pathway assay: IL-13 stimulated STAT6 phosphorylation in BEAS-2B cells. It is filed as cell-based. Conditions: Homo sapiens, BEAS-2B, BEAS-2B cells, IL-13 stimulation; read-out: IL-13 p-STAT6 BEAS-2B IC50. The method in brief: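 BEAS-2B bronchial epithelial cells plated one day before, run in complete growth medium. Phospho-STAT6 in lysates measured by MesoScale Discovery; EC50 reported.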

Structures are written as SMILES.

isolated recombinant JAK2 kinase domain, sequence (O60674 849-1124): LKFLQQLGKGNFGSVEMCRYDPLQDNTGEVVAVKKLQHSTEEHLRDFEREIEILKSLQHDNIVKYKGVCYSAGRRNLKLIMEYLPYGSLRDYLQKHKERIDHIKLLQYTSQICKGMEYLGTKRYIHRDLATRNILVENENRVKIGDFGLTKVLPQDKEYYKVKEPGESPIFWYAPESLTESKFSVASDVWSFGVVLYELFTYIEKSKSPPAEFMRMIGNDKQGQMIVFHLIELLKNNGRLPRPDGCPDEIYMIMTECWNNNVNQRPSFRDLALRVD
isolated recombinant JAK1 kinase domain, sequence (P23458 875-1153): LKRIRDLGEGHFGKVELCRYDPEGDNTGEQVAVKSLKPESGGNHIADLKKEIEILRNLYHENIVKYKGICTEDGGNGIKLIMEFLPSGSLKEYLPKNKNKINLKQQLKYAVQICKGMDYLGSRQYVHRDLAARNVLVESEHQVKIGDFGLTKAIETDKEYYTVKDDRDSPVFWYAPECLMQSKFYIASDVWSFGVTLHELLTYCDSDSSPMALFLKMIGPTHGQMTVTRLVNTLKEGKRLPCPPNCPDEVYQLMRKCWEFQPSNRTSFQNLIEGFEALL

A word on the Ki: it is the dissociation constant of the complex between target and ligand, obtained from inhibition or displacement. A word on the IC50: it is the concentration that inhibits the measured activity by half. Turning to `N#CCn1cc(NC(=O)c2cnn3cccnc23)c(-c2cc3c(cc2OC(F)F)NCCO3)n1` [Example 144, N-[1-(cyanomethyl)-3-[6-(difluoromethoxy)-3,4-dihydro-2H-1,4-benzoxazin-7-yl]pyrazol-4-yl]pyrazolo[1,5-a]pyrimidine-3-carboxamide], the Ki in assay [1] was 0.11 nM; in assay [2], 0.14 nM. Further, in assay [3], the IC50 was 7 nM.
On to `Cn1cc(NC(=O)c2cnn3cccnc23)c(-c2cc3c(cc2OC(F)F)NC2(COC2)CO3)n1` [Example 147, N-(3-(6-(difluoromethoxy)-2,4-dihydrospiro[benzo[b][1,4]oxazine-3,3′-oxetan]-7-yl)-1-methyl-1H-pyrazol-4-yl)pyrazolo[1,5-a]pyrimidine-3-carboxamide], for which the Ki in assay [1] worked out at 0.32 nM; in assay [2], 0.34 nM. Further, the IC50 in assay [3] is 14 nM.
For `C[C@H]1CNc2cc(OC(F)F)c(-c3n[nH]cc3NC(=O)c3cnn4cccnc34)cc2O1` [Example 148, (S)—N-(3-(6-(difluoromethoxy)-2-methyl-3,4-dihydro-2H-benzo[b][1,4]oxazin-7-yl)-1H-pyrazol-4-yl)pyrazolo[1,5-a]pyrimidine-3-carboxamide], the inhibition constant (Ki) was found to be 0.17 nM in assay [1] and 0.51 nM in assay [2]. In assay [3], the IC50 stood at 55 nM.
On the same counts, the results for `Cn1cc(NC(=O)c2cnn3cccnc23)c(-c2cc3c(cc2OC(F)F)NCC(C)(C)O3)n1` [Example 149, N-(3-(6-(difluoromethoxy)-2,2-dimethyl-3,4-dihydro-2H-benzo[b][1,4]oxazin-7-yl)-1-methyl-1H-pyrazol-4-yl)pyrazolo[1,5-a]pyrimidine-3-carboxamide] are 0.64 nM, 1.33 nM and 43 nM.
With `O=C(Nc1c[nH]nc1-c1cc2c(cc1OC(F)F)OCCO2)c1cnn2cccnc12` [Example 150, N-(3-(7-(difluoromethoxy)-2,3-dihydrobenzo[b][1,4]dioxin-6-yl)-1H-pyrazol-4-yl)pyrazolo[1,5-a]pyrimidine-3-carboxamide], the Ki was determined as 0.61 nM in assay [1] and 1.65 nM in assay [2]. In assay [3], the IC50 came out at 61 nM.
With `O=C(Nc1c[nH]nc1-c1cc2c(cc1OC(F)F)SCCO2)c1cnn2cccnc12` [Example 151, N-(3-(6-(difluoromethoxy)-2,3-dihydrobenzo[b][1,4]oxathiin-7-yl)-1H-pyrazol-4-yl)pyrazolo[1,5-a]pyrimidine-3-carboxamide], the Ki in assay [1] was 0.25 nM; in assay [2] it was 0.77 nM. Besides, in assay [3], the IC50 came out at 30 nM.
In the case of `O=C(Nc1c[nH]nc1-c1cc2sncc2cc1OC(F)F)c1cnn2cccnc12` [Example 152, N-(3-(5-(difluoromethoxy)benzo[d]isothiazol-6-yl)-1H-pyrazol-4-yl)pyrazolo[1,5-a]pyrimidine-3-carboxamide], the results for the Ki in assay [1] and in assay [2] were 0.06 nM and 0.1 nM, respectively. In assay [3], the IC50 was found to be 4 nM.
Turning to `O=C(Nc1c[nH]nc1-c1cc2cnsc2cc1OC(F)F)c1cnn2cccnc12` [Example 153, N-(3-(6-(difluoromethoxy)benzo[d]isothiazol-5-yl)-1H-pyrazol-4-yl)pyrazolo[1,5-a]pyrimidine-3-carboxamide], the Ki in assay [1] was found to be 0.08 nM; in assay [2] it was 0.15 nM. In assay [3], the IC50 came to 5 nM.
Take `CC(C)OC(=O)n1cc(NC(=O)c2cnn3cccnc23)c(-c2cc3c(cc2OC(F)F)NCCO3)n1` [Example 154, Propan-2-yl 3-[6-(difluoromethoxy)-3,4-dihydro-2H-1,4-benzoxazin-7-yl]-4-[pyrazolo[1,5-a]pyrimidine-3-amido]-1H-pyrazole-1-carboxylate]: the figures for the Ki in assay [1] and in assay [2] were 0.38 nM and 0.4 nM, respectively. The IC50 in assay [3] came to 22 nM.
